# Source: paper PMC12649549, “Sequence Permutation Generated Lysine and Tryptophan-Rich Antimicrobial Peptides with Enhanced Therapeutic Index” (Antibiotics, 2025)
# Like-named read-outs stand apart in the source and are kept apart here.
# How the values were obtained:
# [1] = system: Both Gram-positive and -negative bacteria; experiment: Geometric mean MIC, therapeutic index and fold changes of MIC, whole panel of strains; assay type: cell-based; conditions: for GM G−/+ (geometric mean of the MIC values): Both Gram-positive and -negative bacteria, MH broth, MIC >50 µg/mL counted as 100 µg/mL; for Therapeutic Index (TI) G−/+: HC10/GM, both Gram-positive and -negative bacteria
# Protocol: In this study, we aimed to investigate the potential of W5K series peptides for therapeutic use. To evaluate their efficacy for antibacterial therapy, we used the Therapeutic Index (TI) as a measure of their cell selectivity. The TI was calculated as the ratio of the concentration causing 10% hemolysis of human red blood cells (HC10) to the geometric mean minimum inhibitory concentration (GM) of the peptides against both Gram-negative and Gram-positive bacteria. This parameter was used to quantitatively assess the balance between antibacterial potency and cytotoxicity among the W5K derivatives.
# (§1) The antibacterial activities of the peptides in Müller-Hinton (MH) broth and modified LYM broth were determined using the standard broth microdilution method as per Clinical and Laboratory Standards Institute (CLSI) guidelines. The LYM broth was prepared with specific components and adjusted to different conditions, including varying concentrations of NaCl and MgCl2, and different pH levels. To prepare the LYM broth, 5.4 mM KCl, 5.6 mM Na2HPO4, 0.5 mM MgSO4, and 1.0 mM sodium citrate were added. Additionally, 0.4 mg of ZnCl2, 2.0 mg of FeCl3·6H2O, 0.1 mg of CuSO4·5H2O, 0.1 mg of MnSO4·H2O, 0.1 mg of Na2B4O7∙10H2O, 700 mg of amino acid mixtures without tryptophan (Takara Bio Inc., San Jose, CA, USA), and 20 mg of L-tryptophan were added per liter of medium. The pH was adjusted to 7.4, and a vitamin mixture (100X, Sigma) and glucose concentration of 2% were added. For different conditions of LYM broth, NaCl concentrations of 300, 200, 150, and 50 mM, MgCl2 concentrations of 2.5, 1.5, and 0.5 mM, and pH levels of 6.5, 5.5, and 4.5 were adjusted. Bacterial strains were incubated in MH broth overnight, regrown, and diluted to a final concentration of 5 × 10^5 CFU/mL. Peptides were added to each well at final concentrations of 50, 25, 12.5, 6.25, 3.13, 1.56, and 0.78 µg/mL, and 99 µL of diluted microbes was loaded into each well of a polypropylene 96-well plate. […] The Morpheus HeatMap software (https://software.broadinstitute.org/morpheus/) was used to display MIC values on a color scale. All experiments were independently repeated three times.
# [2] = system: Pseudomonas aeruginosa Migula (ATCC 27853)
# Summary of the method: (§2)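 Broth microdilution per CLSI in Müller-Hinton broth and modified LYM broth (pH 7.4; variants with 50–300 mM NaCl, 0.5–2.5 mM MgCl2, or pH 6.5–4.5). Inoculum 5 × 10^5 CFU/mL; peptides tested at 0.78–50 µg/mL final. MIC read; three independent repeats.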
# [3] = system: S. aureus ATCC 33591
# Summary of the method: as §2
# [4] = system: S. aureus ATCC 33593
# Summary of the method: as §2
# [5] = system: S. aureus ATCC 33592
# Protocol: The antibacterial and salt-resistant activity of the peptides was tested using Escherichia coli (ATCC 25922), Pseudomonas aeruginosa Migula (ATCC 27853), Acinetobacter sp. (BCRC number 14B0091, BCRC number 14B0097, and BCRC number 14B0100), and Staphylococcus aureus sp. strains (ATCC 25923, ATCC 33591, ATCC 33592, ATCC 33593, and ATCC 6538). All bacteria were obtained from the Food Industry Research and Development Institute (Hsinchu, Taiwan) and cultured in sterilized Müller-Hinton (MH) broth at 37 °C and 200 rpm for 8 h. The inoculum concentrations were determined by measuring the optical density at 600 nm (OD 600 = 1, approximately 10^8 CFU/mL) using an Ultrospec 2100 pro UV-Visible spectrophotometer (Biochrom Ltd., Cambridge, UK) after 8 h of culture.
# as §1, with “For different conditions of LYM broth, NaCl concentrations of 300, 200, 150, and 50 mM, MgCl2 concentrations of 2.5, 1.5, and 0.5 mM, and pH levels of 6.5, 5.5, and 4.5 were adjusted.” left out
# [6] = LYM broth, 0 mM NaCl, 16 h, 37 °C
# [7] = LYM broth, 50 mM NaCl, 16 h, 37 °C
# [8] = LYM broth, 100 mM NaCl, 16 h, 37 °C
# [9] = LYM broth, 200 mM (NaCl), 16 h, 37 °C
# [10] = LYM broth, 300 mM (NaCl), 16 h, 37 °C
# [11] = MH broth, 5 × 10^5 CFU/mL, 16 h, 37 °C, repeated three times
substance,measurement,setting,value
Ac-LAKKKKWRKWLKW-NH2 [Peptide W5K09],GM G−/+ (geometric mean of the MIC values),[1],50.0 µg/mL
same,Therapeutic Index (TI) G−/+,[1],2.2
same,MIC,[2]; [6],3.13 µg/mL
same,MIC,"[2]; LYM broth, 0.5 mM MgCl2",6.25 µg/mL
same,MIC,"[2]; LYM broth, 1.5 mM MgCl2",6.25 µg/mL
same,MIC,"[2]; LYM broth, 2.5 mM MgCl2",12.5 µg/mL
same,MIC,[2]; [7],6.25 µg/mL
same,MIC,[2]; [8],12.5 µg/mL
same,MIC,[2]; [9],50 µg/mL
same,MIC,[2]; [10],>50 µg/mL
same,MIC,"[2]; LYM broth, pH 4.5",6.25 µg/mL
same,MIC,"[2]; LYM broth, pH 5.5",3.13 µg/mL
same,MIC,"[2]; LYM broth, pH 6.5",3.13 µg/mL
same,MIC,[2]; [11],25 µg/mL
same,MIC,[3]; [6],25 µg/mL
same,MIC,"[3]; LYM broth, 0.5 mM MgCl2",25 µg/mL
same,MIC,"[3]; LYM broth, 1.5 mM MgCl2",50 µg/mL
same,MIC,"[3]; LYM broth, 2.5 mM MgCl2",50 µg/mL
same,MIC,[3]; [7],25 µg/mL
same,MIC,[3]; [8],50 µg/mL
same,MIC,[3]; [9],>50 µg/mL
same,MIC,[3]; [10],>50 µg/mL
same,MIC,"[3]; LYM broth, pH 4.5",25 µg/mL
same,MIC,"[3]; LYM broth, pH 5.5",12.5 µg/mL
same,MIC,"[3]; LYM broth, pH 6.5",12.5 µg/mL
same,MIC,[3]; [11],>50 µg/mL
same,MIC,[4]; [6],25 µg/mL
same,MIC,"[4]; LYM broth, 0.5 mM MgCl2",25 µg/mL
same,MIC,"[4]; LYM broth, 1.5 mM MgCl2",25 µg/mL
same,MIC,"[4]; LYM broth, 2.5 mM MgCl2",50 µg/mL
same,MIC,[4]; [7],25 µg/mL
same,MIC,[4]; [8],50 µg/mL
same,MIC,[4]; [9],>50 µg/mL
same,MIC,[4]; [10],>50 µg/mL
same,MIC,"[4]; LYM broth, pH 4.5",25 µg/mL
same,MIC,"[4]; LYM broth, pH 5.5",25 µg/mL
same,MIC,"[4]; LYM broth, pH 6.5",12.5 µg/mL
same,MIC,[4]; [11],>50 µg/mL
same,MIC,[5]; [6],25 µg/mL
same,MIC,"[5]; LYM broth, 0.5 mM MgCl2",25 µg/mL
same,MIC,"[5]; LYM broth, 1.5 mM MgCl2",25 µg/mL
same,MIC,"[5]; LYM broth, 2.5 mM MgCl2",50 µg/mL
same,MIC,[5]; [7],25 µg/mL
same,MIC,[5]; [8],50 µg/mL
same,MIC,[5]; [9],50 µg/mL
same,MIC,[5]; [10],>50 µg/mL
same,MIC,"[5]; LYM broth, pH 4.5",25 µg/mL
same,MIC,"[5]; LYM broth, pH 5.5",12.5 µg/mL
same,MIC,"[5]; LYM broth, pH 6.5",12.5 µg/mL
same,MIC,[5]; [11],>50 µg/mL
Ac-LKWLAKKKKWRKW-NH2 [Peptide W5K06],GM G−/+ (geometric mean of the MIC values),[1],57.4 µg/mL
same,Therapeutic Index (TI) G−/+,[1],1.9
same,MIC,[2]; [6],6.25 µg/mL
same,MIC,"[2]; LYM broth, 0.5 mM MgCl2",6.25 µg/mL
same,MIC,"[2]; LYM broth, 1.5 mM MgCl2",6.25 µg/mL
same,MIC,"[2]; LYM broth, 2.5 mM MgCl2",25 µg/mL
same,MIC,[2]; [8],25 µg/mL
same,MIC,[2]; [9],>50 µg/mL
same,MIC,[2]; [10],>50 µg/mL
same,MIC,"[2]; LYM broth, pH 4.5",25 µg/mL
same,MIC,"[2]; LYM broth, pH 5.5",6.25 µg/mL
same,MIC,"[2]; LYM broth, pH 6.5",3.13 µg/mL
same,MIC,[2]; [11],50 µg/mL
same,MIC,[3]; [6],12.5 µg/mL
same,MIC,"[3]; LYM broth, 0.5 mM MgCl2",12.5 µg/mL
same,MIC,"[3]; LYM broth, 1.5 mM MgCl2",12.5 µg/mL
same,MIC,"[3]; LYM broth, 2.5 mM MgCl2",25 µg/mL
same,MIC,[3]; [7],25 µg/mL
same,MIC,[3]; [8],50 µg/mL
same,MIC,[3]; [9],50 µg/mL
same,MIC,[3]; [10],>50 µg/mL
same,MIC,"[3]; LYM broth, pH 4.5",12.5 µg/mL
same,MIC,"[3]; LYM broth, pH 5.5",6.25 µg/mL
same,MIC,"[3]; LYM broth, pH 6.5",6.25 µg/mL
same,MIC,[3]; [11],>50 µg/mL
same,MIC,[4]; [6],12.5 µg/mL
same,MIC,"[4]; LYM broth, 0.5 mM MgCl2",12.5 µg/mL
same,MIC,"[4]; LYM broth, 1.5 mM MgCl2",25 µg/mL
same,MIC,"[4]; LYM broth, 2.5 mM MgCl2",25 µg/mL
same,MIC,[4]; [7],25 µg/mL
same,MIC,[4]; [8],50 µg/mL
same,MIC,[4]; [9],>50 µg/mL
same,MIC,[4]; [10],>50 µg/mL
same,MIC,"[4]; LYM broth, pH 4.5",12.5 µg/mL
same,MIC,"[4]; LYM broth, pH 5.5",6.25 µg/mL
same,MIC,"[4]; LYM broth, pH 6.5",6.25 µg/mL
same,MIC,[4]; [11],>50 µg/mL
same,MIC,[5]; [6],12.5 µg/mL
same,MIC,"[5]; LYM broth, 0.5 mM MgCl2",12.5 µg/mL
same,MIC,"[5]; LYM broth, 1.5 mM MgCl2",25 µg/mL
same,MIC,"[5]; LYM broth, 2.5 mM MgCl2",25 µg/mL
same,MIC,[5]; [7],25 µg/mL
same,MIC,[5]; [8],50 µg/mL
same,MIC,[5]; [9],>50 µg/mL
same,MIC,[5]; [10],>50 µg/mL
same,MIC,"[5]; LYM broth, pH 4.5",12.5 µg/mL
same,MIC,"[5]; LYM broth, pH 5.5",12.5 µg/mL
same,MIC,"[5]; LYM broth, pH 6.5",6.25 µg/mL
same,MIC,[5]; [11],>50 µg/mL
